Where “and” joins values, the source holds several entries; their conditions need not be identical. Equal entries are not always repeated. Toxic doses and inconclusive results are not listed. No stated cut-off is given here; in the data, active means T/C of 150% or more; inactive means T/C below 125%.
Test system: L1210 leukemia ip in BDF1 mice, survival T/C
Test: NCI In Vivo Anticancer Drug Screen. Data for tumor model L1210 Leukemia (intraperitoneal) in B6D2F1 (BDF1) mice
Settings: higher = longer survival
Method in brief: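 Tumor cells were implanted, animals were treated, and survival was followed. The result divides the treated measurement by the vehicle-control measurement.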

[1] = endpoint: mean survival time, dose: 100.0 mg/kg/injection, schedule: Q04DX003 (ip), vehicle: saline
[2] = endpoint: mean survival time, dose: 100.0 mg/kg/injection, schedule: Q04DX003 (ip), vehicle: saline with Tween-80

Measured: T/C

CO[C@H](C(=O)[C@@H](O)[C@@H](C)O)[C@@H]1Cc2cc3cc(OC4CC(OC5CC(O)C(O)C(C)O5)C(O)C(C)O4)c(C)c(O)c3c(O)c2C(=O)[C@H]1OC1CC(OC2CC(OC3CC(C)(O)C(O)C(C)O3)C(O)C(C)O2)C(O)C(C)O1 (stereo partly specified)
inactive: endpoint: mean survival time, dose: 0.13 mg/kg/injection, schedule: Q01DX001 (iv), vehicle: water 86 % of control | endpoint: mean survival time, dose: 0.15 mg/kg/injection, schedule: Q01DX015 (ip), vehicle: saline 93 % of control | endpoint: mean survival time, dose: 0.25 mg/kg/injection, schedule: Q01DX001 (ip), vehicle: water 104 % of control | endpoint: mean survival time, dose: 0.25 mg/kg/injection, schedule: Q01DX001 (iv), vehicle: water 96 % of control | endpoint: mean survival time, dose: 0.25 mg/kg/injection, schedule: Q01DX Z (ip), vehicle: saline 98 % of control | endpoint: mean survival time, dose: 0.31 mg/kg/injection, schedule: Q01DX015 (ip), vehicle: saline 104 % of control | endpoint: mean survival time, dose: 0.37 mg/kg/injection, schedule: Q01DX001 (ip), vehicle: water 98 % of control | endpoint: mean survival time, dose: 0.5 mg/kg/injection, schedule: Q01DX001 (ip), vehicle: saline 98 % of control and 101 % of control | endpoint: mean survival time, dose: 0.5 mg/kg/injection, schedule: Q01DX001 (ip), vehicle: water 95 % of control and 97 % of control | endpoint: mean survival time, dose: 0.5 mg/kg/injection, schedule: Q01DX001 (iv), vehicle: water 100 % of control | endpoint: mean survival time, dose: 0.5 mg/kg/injection, schedule: Q01DX Z (ip), vehicle: saline 107 % of control | endpoint: mean survival time, dose: 0.62 mg/kg/injection, schedule: Q01DX015 (ip), vehicle: saline 102 % of control | endpoint: mean survival time, dose: 1.0 mg/kg/injection, schedule: Q01DX001 (ip), vehicle: saline 97 % of control | endpoint: mean survival time, dose: 1.0 mg/kg/injection, schedule: Q01DX Z (ip), vehicle: saline 103 % of control | endpoint: mean survival time, dose: 1.25 mg/kg/injection, schedule: Q01DX001 (ip), vehicle: saline 109 % of control | endpoint: mean survival time, dose: 1.25 mg/kg/injection, schedule: Q01DX015 (ip), vehicle: saline 96 % of control | endpoint: mean survival time, dose: 2.0 mg/kg/injection, schedule: Q01DX001 (ip), vehicle: saline 101 % of control | endpoint: mean survival time, dose: 2.5 mg/kg/injection, schedule: Q01DX001 (ip), vehicle: saline 109 % of control | endpoint: mean survival time, dose: 10.0 mg/kg/injection, schedule: Q01DX001 (ip), vehicle: saline 91 % of control | endpoint: mean survival time, dose: 1.5 micrograms/kg/injection, schedule: Q01DX009 (ip), vehicle: saline 101 % of control and 114 % of control | endpoint: mean survival time, dose: 3.0 micrograms/kg/injection, schedule: Q01DX009 (ip), vehicle: saline 100 % of control and 104 % of control | endpoint: mean survival time, dose: 6.0 micrograms/kg/injection, schedule: Q01DX009 (ip), vehicle: saline 95 % of control and 97 % of control | endpoint: mean survival time, dose: 12.0 micrograms/kg/injection, schedule: Q01DX009 (ip), vehicle: saline 94 % of control and 95 % of control | endpoint: mean survival time, dose: 12.0 micrograms/kg/injection, schedule: Q04DX002 (ip), vehicle: saline 97 % of control and 108 % of control | endpoint: mean survival time, dose: 22.0 micrograms/kg/injection, schedule: Q01DX Z (ip), vehicle: water 97 % of control | endpoint: mean survival time, dose: 22.0 micrograms/kg/injection, schedule: Q02DX Z (ip), vehicle: water 88 % of control | endpoint: mean survival time, dose: 23.0 micrograms/kg/injection, schedule: Q04DX002 (ip), vehicle: saline 101 % of control and 90 % of control | endpoint: mean survival time, dose: 25.0 micrograms/kg/injection, schedule: Q01DX009 (ip), vehicle: saline 99 % of control and 100 % of control | endpoint: mean survival time, dose: 33.0 micrograms/kg/injection, schedule: Q01DX Z (ip), vehicle: water 91 % of control | endpoint: mean survival time, dose: 33.0 micrograms/kg/injection, schedule: Q02DX Z (ip), vehicle: water 96 % of control | endpoint: mean survival time, dose: 45.0 micrograms/kg/injection, schedule: Q04DX002 (ip), vehicle: saline 94 % of control and 103 % of control | endpoint: mean survival time, dose: 50.0 micrograms/kg/injection, schedule: Q01DX009 (ip), vehicle: saline 103 % of control and 110 % of control | endpoint: mean survival time, dose: 50.0 micrograms/kg/injection, schedule: Q01DX Z (ip), vehicle: water 88 % of control | endpoint: mean survival time, dose: 50.0 micrograms/kg/injection, schedule: Q02DX Z (ip), vehicle: water 91 % of control | endpoint: mean survival time, dose: 62.5 micrograms/kg/injection, schedule: Q01DX Z (ip), vehicle: saline 97 % of control | endpoint: mean survival time, dose: 75.0 micrograms/kg/injection, schedule: Q01DX Z (ip), vehicle: water 91 % of control | endpoint: mean survival time, dose: 75.0 micrograms/kg/injection, schedule: Q02DX Z (ip), vehicle: water 97 % of control | endpoint: mean survival time, dose: 90.0 micrograms/kg/injection, schedule: Q04DX002 (ip), vehicle: saline 100 % of control and 106 % of control | endpoint: mean survival time, dose: 125.0 micrograms/kg/injection, schedule: Q01DX009 (ip), vehicle: clinical formulation 103 % of control | endpoint: mean survival time, dose: 125.0 micrograms/kg/injection, schedule: Q01DX009 (ip), vehicle: saline 105 % of control | endpoint: mean survival time, dose: 125.0 micrograms/kg/injection, schedule: Q01DX Z (ip), vehicle: saline 107 % of control | endpoint: mean survival time, dose: 190.0 micrograms/kg/injection, schedule: Q04DX002 (ip), vehicle: saline 87 % of control and 90 % of control | endpoint: mean survival time, dose: 250.0 micrograms/kg/injection, schedule: Q01DX009 (ip), vehicle: clinical formulation 103 % of control | endpoint: mean survival time, dose: 250.0 micrograms/kg/injection, schedule: Q01DX009 (ip), vehicle: saline 107 % of control | endpoint: mean survival time, dose: 250.0 micrograms/kg/injection, schedule: Q01DX Z (ip), vehicle: saline 109 % of control | endpoint: mean survival time, dose: 370.0 micrograms/kg/injection, schedule: Q04DX002 (ip), vehicle: saline 97 % of control and 103 % of control | endpoint: mean survival time, dose: 375.0 micrograms/kg/injection, schedule: Q01DX009 (ip), vehicle: saline 108 % of control | endpoint: mean survival time, dose: 500.0 micrograms/kg/injection, schedule: Q01DX009 (ip), vehicle: clinical formulation 108 % of control | endpoint: mean survival time, dose: 500.0 micrograms/kg/injection, schedule: Q01DX009 (ip), vehicle: saline 113 % of control | endpoint: mean survival time, dose: 500.0 micrograms/kg/injection, schedule: Q01DX Z (ip), vehicle: saline 113 % of control | endpoint: mean survival time, dose: 750.0 micrograms/kg/injection, schedule: Q01DX009 (ip), vehicle: saline 108 % of control | endpoint: mean survival time, dose: 1000.0 micrograms/kg/injection, schedule: Q01DX009 (ip), vehicle: clinical formulation 109 % of control | endpoint: mean survival time, dose: 1000.0 micrograms/kg/injection, schedule: Q01DX009 (ip), vehicle: saline 114 % of control | endpoint: mean survival time, dose: 1500.0 micrograms/kg/injection, schedule: Q01DX009 (ip), vehicle: saline 108 % of control | endpoint: mean survival time, dose: 3000.0 micrograms/kg/injection, schedule: Q01DX009 (ip), vehicle: saline 113 % of control | endpoint: median survival time, dose: 0.25 mg/kg/injection, schedule: Q01DX009 (ip), vehicle: saline 100 % of control and 111 % of control | endpoint: median survival time, dose: 0.5 mg/kg/injection, schedule: Q01DX009 (ip), vehicle: saline 106 % of control and 122 % of control

O=[N+]([O-])c1c(Br)sc(Br)c1[N+](=O)[O-]
inactive: endpoint: mean survival time, dose: 2.5 mg/kg/injection, schedule: Q01DX009 (ip), vehicle: Klucel (hydroxypropylcellulose) (HPC) 88 % of control | endpoint: mean survival time, dose: 2.5 mg/kg/injection, schedule: Q04DX003 (ip), vehicle: Klucel (hydroxypropylcellulose) (HPC) 109 % of control | endpoint: mean survival time, dose: 5.0 mg/kg/injection, schedule: Q01DX009 (ip), vehicle: Klucel (hydroxypropylcellulose) (HPC) 88 % of control | endpoint: mean survival time, dose: 5.0 mg/kg/injection, schedule: Q04DX003 (ip), vehicle: Klucel (hydroxypropylcellulose) (HPC) 101 % of control | endpoint: mean survival time, dose: 10.0 mg/kg/injection, schedule: Q01DX009 (ip), vehicle: Klucel (hydroxypropylcellulose) (HPC) 108 % of control | endpoint: mean survival time, dose: 10.0 mg/kg/injection, schedule: Q04DX003 (ip), vehicle: Klucel (hydroxypropylcellulose) (HPC) 96 % of control

CCCCCCCCCCCCCCCCC/C=N\NC(=O)CCCC(=O)N/N=C/CCCCCCCCCCCCCCCCC
inactive: endpoint: mean survival time, dose: 50.0 mg/kg/injection, schedule: Q01DX001 (ip), vehicle: other 90 % of control | endpoint: mean survival time, dose: 200.0 mg/kg/injection, schedule: Q01DX001 (ip), vehicle: other 88 % of control

CCCCCCCCOC(=O)CCC(N)C(=O)O (stereo unspecified)
inactive: endpoint: mean survival time, dose: 100.0 mg/kg/injection, schedule: Q01DX001 (ip), vehicle: Klucel (hydroxypropylcellulose) (HPC) 107 % of control | endpoint: mean survival time, dose: 100.0 mg/kg/injection, schedule: Q01DX009 (ip), vehicle: Klucel (hydroxypropylcellulose) (HPC) 93 % of control | endpoint: mean survival time, dose: 200.0 mg/kg/injection, schedule: Q01DX001 (ip), vehicle: Klucel (hydroxypropylcellulose) (HPC) 102 % of control | endpoint: mean survival time, dose: 200.0 mg/kg/injection, schedule: Q01DX009 (ip), vehicle: Klucel (hydroxypropylcellulose) (HPC) 97 % of control | endpoint: mean survival time, dose: 400.0 mg/kg/injection, schedule: Q01DX001 (ip), vehicle: Klucel (hydroxypropylcellulose) (HPC) 98 % of control | endpoint: mean survival time, dose: 400.0 mg/kg/injection, schedule: Q01DX009 (ip), vehicle: Klucel (hydroxypropylcellulose) (HPC) 97 % of control

NC(=O)CC1(O)CCCCC1
inactive: [1] 114 % of control | endpoint: mean survival time, dose: 200.0 mg/kg/injection, schedule: Q04DX003 (ip), vehicle: saline 97 % of control | endpoint: mean survival time, dose: 400.0 mg/kg/injection, schedule: Q04DX003 (ip), vehicle: saline 97 % of control

S=C1SCC(c2ccccc2)S1 (stereo unspecified)
inactive: [2] 92 % of control | endpoint: mean survival time, dose: 200.0 mg/kg/injection, schedule: Q04DX003 (ip), vehicle: saline with Tween-80 92 % of control | endpoint: mean survival time, dose: 400.0 mg/kg/injection, schedule: Q04DX003 (ip), vehicle: saline with Tween-80 89 % of control

CCN(CCO)Cc1cccc2ccccc12
inactive: endpoint: mean survival time, dose: 25.0 mg/kg/injection, schedule: Q04DX003 (ip), vehicle: saline 97 % of control | endpoint: mean survival time, dose: 50.0 mg/kg/injection, schedule: Q04DX003 (ip), vehicle: saline 101 % of control | [2] 98 % of control | [1] 101 % of control
